PubChem BioAssay (NCI)
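Cells were grown in 96-well plates and exposed to each compound for 48 hours at five concentrations; endpoints were interpolated linearly between bracketing concentrations, or set to the highest concentration if not reached. At the GI50, growth is halved. TGI marks complete inhibition of growth.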

What was measured:
Assay in all cases: DTP human tumour cell line panel, 48 h
NCI-H226 lung = tested on: NCI-H226 lung
NCI-H522 lung = tested on: NCI-H522 lung
NCI/ADR-RES ovarian = tested on: NCI/ADR-RES ovarian
HL-60(TB) leukemia = tested on: HL-60(TB) leukemia
MALME-3M melanoma = tested on: MALME-3M melanoma
CAKI-1 renal = tested on: CAKI-1 renal
SW-620 colon = tested on: SW-620 colon
SNB-19 CNS = tested on: SNB-19 CNS
RXF 393 renal = tested on: RXF 393 renal
SF-268 CNS = tested on: SF-268 CNS
UACC-257 melanoma = tested on: UACC-257 melanoma
PC-3 prostate = tested on: PC-3 prostate
NCI-H23 lung = tested on: NCI-H23 lung
T-47D breast = tested on: T-47D breast
OVCAR-3 ovarian = tested on: OVCAR-3 ovarian
SR leukemia = tested on: SR leukemia
SNB-75 CNS = tested on: SNB-75 CNS
HCT-15 colon = tested on: HCT-15 colon
K-562 leukemia = tested on: K-562 leukemia
HCT-116 colon = tested on: HCT-116 colon
DU-145 prostate = tested on: DU-145 prostate
OVCAR-5 ovarian = tested on: OVCAR-5 ovarian
SK-MEL-2 melanoma = tested on: SK-MEL-2 melanoma
SN12C renal = tested on: SN12C renal
UACC-62 melanoma = tested on: UACC-62 melanoma
MOLT-4 leukemia = tested on: MOLT-4 leukemia
HCC-2998 colon = tested on: HCC-2998 colon
HOP-62 NSCLC = tested on: HOP-62 NSCLC
TK-10 renal = tested on: TK-10 renal
HT29 colon = tested on: HT29 colon
SK-MEL-5 melanoma = tested on: SK-MEL-5 melanoma
BT-549 breast = tested on: BT-549 breast
OVCAR-8 ovarian = tested on: OVCAR-8 ovarian
IGROV1 ovarian = tested on: IGROV1 ovarian
MCF7 breast = tested on: MCF7 breast
NCI-H460 lung = tested on: NCI-H460 lung
M14 melanoma = tested on: M14 melanoma
LOX IMVI melanoma = tested on: LOX IMVI melanoma
MDA-MB-231 breast = tested on: MDA-MB-231 breast
SF-295 CNS = tested on: SF-295 CNS
KM12 colon = tested on: KM12 colon
SK-MEL-28 melanoma = tested on: SK-MEL-28 melanoma
SF-539 CNS = tested on: SF-539 CNS
HS 578T breast = tested on: HS 578T breast
OVCAR-4 ovarian = tested on: OVCAR-4 ovarian
A549 NSCLC = tested on: A549 NSCLC
A498 renal = tested on: A498 renal
UO-31 renal = tested on: UO-31 renal
U251 CNS = tested on: U251 CNS
786-0 renal = tested on: 786-0 renal
SK-OV-3 ovarian = tested on: SK-OV-3 ovarian
EKVX NSCLC = tested on: EKVX NSCLC
RPMI-8226 leukemia = tested on: RPMI-8226 leukemia
COLO 205 colon = tested on: COLO 205 colon
HOP-92 NSCLC = tested on: HOP-92 NSCLC
ACHN renal = tested on: ACHN renal
MDA-MB-435 = tested on: MDA-MB-435
CCRF-CEM leukemia = tested on: CCRF-CEM leukemia

With CCO/C=N/C1=C(C#N)C(c2ccc(Cl)cc2)c2sc3c(CC)cccc3c2O1 (stereo unspecified) the GI50 (NCI-H226 lung) was 5.94 µM, the TGI (NCI-H226 lung) was 25.3 µM and the GI50 (NCI-H522 lung) was 0.433 µM. The TGI (NCI-H522 lung) was 4.57 µM, the GI50 (NCI/ADR-RES ovarian) was 0.475 µM and the TGI (NCI/ADR-RES ovarian) was 3.14 µM. The GI50 (HL-60(TB) leukemia) was 1.34 µM, the TGI (HL-60(TB) leukemia) was 11.7 µM and the GI50 (MALME-3M melanoma) was 10.1 µM. It also gave a TGI (MALME-3M melanoma) of 22.6 µM, a GI50 (CAKI-1 renal) of 0.703 µM and a TGI (CAKI-1 renal) of 18 µM. The GI50 (SW-620 colon) was 0.71 µM, the TGI (SW-620 colon) was 16.9 µM and the GI50 (SNB-19 CNS) was 1.9 µM. The TGI (SNB-19 CNS) was 13.9 µM, the GI50 (RXF 393 renal) was 1.41 µM and the TGI (RXF 393 renal) was 5.57 µM. The GI50 (SF-268 CNS) was 4.99 µM, the TGI (SF-268 CNS) was 21.1 µM and the GI50 (UACC-257 melanoma) was 11.1 µM. For the same molecule, the TGI (UACC-257 melanoma) was 26.1 µM, the GI50 (PC-3 prostate) was 0.788 µM and the TGI (PC-3 prostate) was 11.4 µM. The GI50 (NCI-H23 lung) was 2.56 µM, the TGI (NCI-H23 lung) was 13.1 µM and the GI50 (T-47D breast) was 2.51 µM. For the same molecule, the TGI (T-47D breast) was 15.5 µM, the GI50 (OVCAR-3 ovarian) was 0.813 µM and the TGI (OVCAR-3 ovarian) was 13.2 µM. For the same molecule, the GI50 (SR leukemia) was 0.651 µM, the TGI (SR leukemia) was 18.4 µM and the GI50 (SNB-75 CNS) was 0.206 µM. The TGI (SNB-75 CNS) was 2.01 µM, the GI50 (HCT-15 colon) was 0.617 µM and the TGI (HCT-15 colon) was 10.6 µM. The GI50 (K-562 leukemia) was 0.553 µM, the TGI (K-562 leukemia) was 20.6 µM and the GI50 (HCT-116 colon) was 0.801 µM. For the same molecule, the TGI (HCT-116 colon) was 12.5 µM, the GI50 (DU-145 prostate) was 2.49 µM and the TGI (DU-145 prostate) was 12.4 µM. The GI50 (OVCAR-5 ovarian) was 3.24 µM, the TGI (OVCAR-5 ovarian) was 14.4 µM and the GI50 (SK-MEL-2 melanoma) was 1.65 µM. For the same molecule, the TGI (SK-MEL-2 melanoma) was 18.3 µM, the GI50 (SN12C renal) was 3.03 µM and the TGI (SN12C renal) was 14.5 µM. It also gave a GI50 (UACC-62 melanoma) of 0.596 µM, a TGI (UACC-62 melanoma) of 17.4 µM and a GI50 (MOLT-4 leukemia) of 3.02 µM. The TGI (MOLT-4 leukemia) was 17 µM, the GI50 (HCC-2998 colon) was 1.65 µM and the TGI (HCC-2998 colon) was 4.95 µM. For the same molecule, the GI50 (HOP-62 NSCLC) was 4.78 µM, the TGI (HOP-62 NSCLC) was 23.6 µM and the GI50 (TK-10 renal) was 7.79 µM. The TGI (TK-10 renal) was 20.6 µM, the GI50 (HT29 colon) was 2.39 µM and the TGI (HT29 colon) was 10.1 µM. For the same molecule, the GI50 (SK-MEL-5 melanoma) was 4.19 µM, the TGI (SK-MEL-5 melanoma) was 16.4 µM and the GI50 (BT-549 breast) was 2.64 µM. For the same molecule, the TGI (BT-549 breast) was 16.5 µM, the GI50 (OVCAR-8 ovarian) was 2.77 µM and the TGI (OVCAR-8 ovarian) was 15.1 µM. It also gave a GI50 (IGROV1 ovarian) of 0.702 µM, a TGI (IGROV1 ovarian) of 14.7 µM and a GI50 (MCF7 breast) of 0.475 µM. It also gave a TGI (MCF7 breast) of 10.7 µM, a GI50 (NCI-H460 lung) of 1.74 µM and a TGI (NCI-H460 lung) of 14.2 µM. The GI50 (M14 melanoma) was 1.21 µM, the TGI (M14 melanoma) was 11.7 µM and the GI50 (LOX IMVI melanoma) was 1.45 µM. It also gave a TGI (LOX IMVI melanoma) of 14.4 µM, a GI50 (MDA-MB-231 breast) of 3.96 µM and a TGI (MDA-MB-231 breast) of 16.9 µM. For the same molecule, the GI50 (SF-295 CNS) was 0.331 µM, the TGI (SF-295 CNS) was 1.27 µM and the GI50 (KM12 colon) was 0.876 µM. For the same molecule, the TGI (KM12 colon) was 12.5 µM, the GI50 (SK-MEL-28 melanoma) was 4.04 µM and the TGI (SK-MEL-28 melanoma) was 20.4 µM. For the same molecule, the GI50 (SF-539 CNS) was 1.43 µM, the TGI (SF-539 CNS) was 3.6 µM and the GI50 (HS 578T breast) was 1.85 µM. The TGI (HS 578T breast) was 12.6 µM, the GI50 (OVCAR-4 ovarian) was 4.79 µM and the TGI (OVCAR-4 ovarian) was 19.6 µM. The GI50 (A549 NSCLC) was 1.25 µM, the TGI (A549 NSCLC) was 17.2 µM and the GI50 (A498 renal) was 0.416 µM. For the same molecule, the TGI (A498 renal) was 10.7 µM, the GI50 (UO-31 renal) was 2.2 µM and the TGI (UO-31 renal) was 16 µM. The GI50 (U251 CNS) was 2.38 µM, the TGI (U251 CNS) was 13.5 µM and the GI50 (786-0 renal) was 2.23 µM. It also gave a TGI (786-0 renal) of 14 µM, a GI50 (SK-OV-3 ovarian) of 5.26 µM and a TGI (SK-OV-3 ovarian) of 21 µM. For the same molecule, the GI50 (EKVX NSCLC) was 2.11 µM, the TGI (EKVX NSCLC) was 14.8 µM and the GI50 (RPMI-8226 leukemia) was 2.42 µM. For the same molecule, the TGI (RPMI-8226 leukemia) was 14.4 µM, the GI50 (COLO 205 colon) was 3.36 µM and the TGI (COLO 205 colon) was 11.1 µM. For the same molecule, the GI50 (HOP-92 NSCLC) was 1.53 µM, the TGI (HOP-92 NSCLC) was 17.8 µM and the GI50 (ACHN renal) was 1.21 µM. The TGI (ACHN renal) was 15.4 µM, the GI50 (MDA-MB-435) was 0.307 µM and the TGI (MDA-MB-435) was 0.878 µM. For the same molecule, the GI50 (CCRF-CEM leukemia) was 1.66 µM and the TGI (CCRF-CEM leukemia) was 24.9 µM.
